Values joined by “and” are separate entries in the source; they are usually repeats but may differ in a detail not shown here. Equal values may be shown once. Read-outs that look alike come from different tables or passages of the source.
Assays:
Type in all cases: cell-based
HIV-1 CH64 = conditions: Table 7; CH64, clade BC, R5
HIV-1 CH91 = conditions: Table 7; CH91, clade BC, R5
HIV-1 CH110 = conditions: Table 7; CH110, clade BC, R5
HIV-1 CH117 = conditions: Table 7; CH117, clade BC, R5
HIV-1 CH119 = conditions: Table 7; CH119, clade BC, R5
HIV-1 CH120 = conditions: Table 7; CH120, clade BC, R5
HIV-1 CNE7 = conditions: Table 7; CNE7, clade BC, R5
HIV-1 CNE20 = conditions: Table 7; CNE20, clade BC, R5
HIV-1 CNE23 = conditions: Table 7; CNE23, clade BC, R5
HIV-1 CNE30 = conditions: Table 7; CNE30, clade BC, R5
HIV-1 CNE40 = conditions: Table 7; CNE40, clade BC, R5
HIV-1 CNE46 = conditions: Table 7; CNE46, clade BC, R5
HIV-1 CNE47 = conditions: Table 7; CNE47, clade BC, R5
HIV-1 CNE49 = conditions: Table 7; CNE49, clade BC, R5
HIV-1 CNE68 = conditions: Table 7; CNE68, clade BC, R5
HIV-1 CNE1 = conditions: Table 7; CNE1, clade B′, X4
HIV-1 CNE4 = conditions: Table 7; CNE4, clade B′, R5
HIV-1 CNE6 = conditions: Table 7; CNE6, clade B′, R5
HIV-1 CNE9 = conditions: Table 7; CNE9, clade B′, R5
HIV-1 CNE11 = conditions: Table 7; CNE11, clade B′, R5
HIV-1 CNE14 = conditions: Table 7; CNE14, clade B′, R5
HIV-1 CNE57 = conditions: Table 7; CNE57, clade B′, X4
HIV-1 CNE64 = conditions: Table 7; CNE64, clade B′, R5
HIV-1 CNE17 = conditions: Table 7; CNE17, clade C, R5
HIV-1 CNE58 = conditions: Table 7; CNE58, clade C, R5
HIV-1 CNE65 = conditions: Table 7; CNE65, clade C, R5
HIV-1 CNE3 = conditions: Table 7; CNE3, clade AE, R5
HIV-1 CNE5 = conditions: Table 7; CNE5, clade AE, R5
HIV-1 CNE55 = conditions: Table 7; CNE55, clade AE, R5
HIV-1 YN192.31 = conditions: Table 7; YN192.31, clade AE, R5
HIV-1 GX2010.36 = conditions: Table 7; GX2010.36, clade AE, R5
[1] = system: 41 HIV-1 isolates predominantly circulating in China; conditions: for IC50 / IC90: Table 7, all viruses, >750 assigned 800, >250 assigned 300, >100 assigned 150, >28 assigned 30
[2] = read-out: IC50, arithmetic mean
[3] = read-out: IC90, arithmetic mean

Substance “4Dm2m: bispecific multivalent fusion protein of mD1.22 and m36.4; two SEQ ID NO: 20 and two SEQ ID NO: 21 chains” has an IC90 (HIV-1 CH64) of 1.6 nM, an IC50 (HIV-1 CH91) of 0.39 nM and an IC90 (HIV-1 CH91) of 10 nM. The IC50 (HIV-1 CH110) was 0.11 nM, the IC90 (HIV-1 CH110) was 0.83 nM and the IC50 (HIV-1 CH117) was 0.33 nM. The IC90 (HIV-1 CH119) was 3.4 nM, the IC50 (HIV-1 CH120) was 0.33 nM and the IC90 (HIV-1 CH120) was 6.6 nM. For the same substance, the IC50 (HIV-1 CNE7) was 0.18 nM, the IC90 (HIV-1 CNE7) was 1.8 nM and the IC50 (HIV-1 CNE20) was 0.05 nM. For the same substance, the IC90 (HIV-1 CNE20) was 5.3 nM, the IC50 (HIV-1 CNE23) was 0.49 nM and the IC90 (HIV-1 CNE23) was 4.9 nM. It also gave an IC50 (HIV-1 CNE30) of 0.07 nM, an IC90 (HIV-1 CNE30) of 0.44 nM and an IC50 (HIV-1 CNE40) of 0.01 nM. It also gave an IC90 (HIV-1 CNE40) of 0.11 nM, an IC50 (HIV-1 CNE46) of 0.27 nM and an IC90 (HIV-1 CNE46) of 9.4 nM. For the same substance, the IC50 (HIV-1 CNE47) was 0.11 nM, the IC90 (HIV-1 CNE47) was 2.8 nM and the IC50 (HIV-1 CNE49) was 0.05 nM. The IC90 (HIV-1 CNE49) was 0.56 nM, the IC50 (HIV-1 CNE68) was 0.11 nM and the IC90 (HIV-1 CNE68) was 0.78 nM. For the same substance, the IC50 (HIV-1 CNE1) was 0.11 nM, the IC90 (HIV-1 CNE1) was 0.61 nM and the IC50 (HIV-1 CNE4) was 0.11 nM. It also gave an IC90 (HIV-1 CNE4) of 2.4 nM, an IC50 (HIV-1 CNE6) of 0.33 nM and an IC90 (HIV-1 CNE6) of 2.3 nM. The IC50 (HIV-1 CNE9) was 0.22 nM, the IC50 (HIV-1 CNE11) was 0.33 nM and the IC90 (HIV-1 CNE11) was 2.6 nM. The IC90 (HIV-1 CNE14) was 2.4 nM, the IC90 (HIV-1 CNE57) was 19 nM and the IC50 (HIV-1 CNE64) was 0.56 nM. The IC50 (HIV-1 CNE17) was 0.11 nM, the IC90 (HIV-1 CNE17) was 2.4 nM and the IC90 (HIV-1 CNE58) was greater than 28 nM. The IC50 (HIV-1 CNE65) was 0.28 nM, the IC90 (HIV-1 CNE65) was 3.3 nM and the IC50 (HIV-1 CNE3) was 0.39 nM. It also gave an IC90 (HIV-1 CNE3) of 2.8 nM, an IC50 (HIV-1 CNE5) of 0.67 nM and an IC90 (HIV-1 CNE5) of 8.7 nM. For the same substance, the IC50 (HIV-1 CNE55) was 0.45 nM, the IC90 (HIV-1 CNE55) was 10 nM and the IC50 (HIV-1 YN192.31) was 0.89 nM. For the same substance, the IC50 (HIV-1 GX2010.36) was 0.11 nM, the “IC50 geometric mean lower than that of C34” value ([1]; 41 isolates, P<0.001) was roughly 16 fold and the “IC50 geometric mean lower than that of CD4-Ig” value ([1]; 41 isolates, P<0.001) was roughly 200 fold. For the same substance, the “IC50 geometric mean lower than that of T20” value ([1]; 41 isolates, P=0.002) was “about 50 fold”, the IC50 [1, 2] was 0.34 nM and the IC50 ([1]; read-out: IC50, geometric mean) was ~0.2 nM and 0.22 nM. It also gave an IC90 [1, 3] of 6.2 nM and an IC90 ([1]; read-out: IC90, geometric mean) of 3.5 nM.

Work on enfuvirtide yielded an IC50 (HIV-1 CH64) of 3.1 nM, an IC90 (HIV-1 CH64) of 25 nM and an IC50 (HIV-1 CH91) of 8.6 nM. For the same substance, the IC90 (HIV-1 CH91) was 310 nM, the IC50 (HIV-1 CH110) was 4.3 nM and the IC90 (HIV-1 CH110) was 262 nM. For the same substance, the IC50 (HIV-1 CH117) was 2.3 nM, the IC90 (HIV-1 CH117) was 34 nM and the IC50 (HIV-1 CH119) was 2 nM. It also gave an IC90 (HIV-1 CH119) of 25 nM, an IC50 (HIV-1 CH120) of 11 nM and an IC90 (HIV-1 CH120) of 443 nM. The IC50 (HIV-1 CNE7) was 4.3 nM, the IC90 (HIV-1 CNE7) was 58 nM and the IC50 (HIV-1 CNE20) was 5.5 nM. For the same substance, the IC90 (HIV-1 CNE20) was 41 nM, the IC50 (HIV-1 CNE23) was 15 nM and the IC90 (HIV-1 CNE23) was 228 nM. It also gave an IC50 (HIV-1 CNE30) of 26 nM, an IC90 (HIV-1 CNE30) of 285 nM and an IC50 (HIV-1 CNE40) of 4.9 nM. It also gave an IC90 (HIV-1 CNE40) of 108 nM, an IC50 (HIV-1 CNE46) of 26 nM and an IC90 (HIV-1 CNE46) of 743 nM. For the same substance, the IC50 (HIV-1 CNE47) was 4.9 nM, the IC90 (HIV-1 CNE47) was 42 nM and the IC50 (HIV-1 CNE49) was 9.1 nM. The IC90 (HIV-1 CNE49) was 236 nM, the IC50 (HIV-1 CNE68) was 32 nM and the IC90 (HIV-1 CNE68) was 321 nM. The IC50 (HIV-1 CNE1) was 1.6 nM, the IC90 (HIV-1 CNE1) was 17 nM and the IC50 (HIV-1 CNE4) was 1.7 nM. It also gave an IC90 (HIV-1 CNE4) of 14 nM, an IC50 (HIV-1 CNE6) of 1.4 nM and an IC90 (HIV-1 CNE6) of 15 nM. It also gave an IC50 (HIV-1 CNE9) of 1.7 nM, an IC90 (HIV-1 CNE9) of 14 nM and an IC50 (HIV-1 CNE11) of 3.5 nM. For the same substance, the IC90 (HIV-1 CNE11) was 36 nM, the IC50 (HIV-1 CNE14) was 9.7 nM and the IC90 (HIV-1 CNE14) was 305 nM. It also gave an IC50 (HIV-1 CNE57) of 2.5 nM, an IC90 (HIV-1 CNE57) of 24 nM and an IC50 (HIV-1 CNE64) of 1.9 nM. For the same substance, the IC90 (HIV-1 CNE64) was 16 nM, the IC50 (HIV-1 CNE17) was 42 nM and the IC90 (HIV-1 CNE17) was 676 nM. The IC50 (HIV-1 CNE58) was 54 nM, the IC90 (HIV-1 CNE58) was 745 nM and the IC50 (HIV-1 CNE65) was 5.9 nM. It also gave an IC90 (HIV-1 CNE65) of 78 nM, an IC50 (HIV-1 CNE3) of 5.6 nM and an IC90 (HIV-1 CNE3) of 38 nM. The IC50 (HIV-1 CNE5) was 2.1 nM, the IC90 (HIV-1 CNE5) was 19 nM and the IC50 (HIV-1 CNE55) was 26 nM. It also gave an IC90 (HIV-1 CNE55) of 549 nM, an IC50 (HIV-1 YN192.31) of 42 nM and an IC90 (HIV-1 YN192.31) of 336 nM. It also gave an IC50 (HIV-1 GX2010.36) of 255 nM, an IC90 (HIV-1 GX2010.36) greater than 750 nM and an IC50 [1, 2] of 37 nM. For the same substance, the IC50 ([1]; read-out: IC50, geometric mean) was 11 nM, the IC90 [1, 3] was 277 nM and the IC90 ([1]; read-out: IC90, geometric mean) was 123 nM.

Source: patent publication US20160039904A1, “STABILIZED SINGLE HUMAN CD4 DOMAINS AND FUSION PROTEINS” (priority 2013, published 2016)
